Tests used:
[1] = biological target: A/M2 S31N mutant (Influenza A virus, UniProt P0DOF5, S31N); format: cell-based, influenza A/Udorn/72
[2] = biological target: A/M2 V27A mutant (Influenza A virus, UniProt P0DOF5, V27A); format: cell-based, influenza A/Udorn/72

Substance | inhibition of S31N A/M2 channel activity (in words) [1] | inhibition of V27A A/M2 channel activity (in words) [2]
N,N-Dimethyl-6,7,8,9,10,11-hexahydro-9-methyl-5,7:9,11-dimethano-5H-benzocyclononen-7-amine hydrochloride [Compound 11] | Neither 3 nor 11 were able to inhibit | Neither 3 nor 11 were able to inhibit
N-Benzyl-6,7,8,9,10,11-hexahydro-9-methyl-5,7:9,11-dimethano-5H-benzocyclononen-7-amine hydrochloride [Compound 6] | unable to inhibit | unable to inhibit
6,7,8,9,10,11-Hexahydro-9-methyl-5,7:9,11-dimethano-5H-benzocyclononen-7-amine hydrochloride [Compound 3] | Neither 3 nor 11 were able to inhibit | Neither 3 nor 11 were able to inhibit
